How the values were obtained:
Design in all cases: key: −: it showed no change; +: it showed a slight reduction of the color spot of the substrate and the formation of other reaction product; ++: it showed a high reduction of the color spot of the substrate and the formation of other reaction product; +++: it showed a substantial disappearance of the substrate spot and the formation of other reaction product
[1] = test system: α-isomaltosylglucosaccharide-forming enzyme; test: Action on saccharides as substrates (TLC), enzyme of C9 strain; type: biochemical, Bacillus globisporus C9 strain; settings: two units/g substrate, substrate 2% (w/v), 30° C., pH 6.0, 24 hours
Description: (§1) To examine the saccharides in the supernatant, they were separated by developing twice on silica gel thin-layer chromatography (abbreviated as “TLC” hereinafter) using, as a developer, a mixture solution of n-butanol, pyridine, and water (=6:4:1 by volume), and, as a thin-layer plate, “[…]™ 60”, an aluminum plate (20×20 cm) for TLC commercialized by Merck & Co., Inc., Rahway, USA. The coloration of the separated total sugars by the sulfuric acid-methanol method and that of the reducing saccharides by the diphenylamine-aniline method detected a non-reducing saccharide positive at an Rf value of about 0.31 on the former detection method but negative on the latter detection method.
(§2) It was tested whether any saccharides can be used as substrates for α-isomaltosylglucosaccharide-forming enzyme. For the purpose, a solution of maltose, maltotriose, maltotetraose, maltopentaose, maltohexaose, maltoheptaose, isomaltose, isomaltotriose, panose, isopanose, α,α-trehalose, kojibiose, nigerose, neotrehalose, cellobiose, gentibiose, maltitol, maltotriitol, lactose, sucrose, erlose, selaginose, maltosyl glucoside, or isomaltosyl glucoside was prepared.
(§3) To each of the above solutions was added two units/g substrate of a purified specimen of α-isomaltosylglucosaccharide-forming enzyme from either Bacillus globisporus C9 strain obtained by the method in Experiment 4-2, Bacillus globisporus C11 strain obtained by the method in Experiment 7-2, Bacillus globisporus N75 strain obtained by the method in Experiment 11-2, or Arthrobacter globiformis A19 strain obtained by the method in Experiment 15-2, and the resulting each solution was adjusted to give a substrate concentration of 2% (w/v) and incubated at 30° C. and pH 6.0 for 24 hours, except for using pH 8.4 for the enzyme from Arthrobacter globiformis A19 strain. The enzyme solutions before and after the enzymatic reactions were respectively analyzed on TLC disclosed in Experiment 1 to confirm whether the enzymes acted on these substrates.

[2] = test system: α-isomaltosylglucosaccharide-forming enzyme; test: Action on saccharides as substrates (TLC), enzyme of C11 strain; type: biochemical, Bacillus globisporus C11 strain; settings: two units/g substrate, substrate 2% (w/v), 30° C., pH 6.0, 24 hours
Description: as §1, §2, §3

[3] = test system: α-isomaltosylglucosaccharide-forming enzyme; test: Action on saccharides as substrates (TLC), enzyme of N75 strain; type: biochemical, Bacillus globisporus N75 strain; settings: two units/g substrate, substrate 2% (w/v), 30° C., pH 6.0, 24 hours
Description: as §1, §2, §3

[4] = test system: α-isomaltosylglucosaccharide-forming enzyme; test: Action on saccharides as substrates (TLC), enzyme of A19 strain; type: biochemical, Arthrobacter globiformis A19 strain; settings: two units/g substrate, substrate 2% (w/v), 30° C., pH 8.4, 24 hours
Description: as §1, §2, §3

Row | Molecule | Enzymatic action, Enzyme of C9 strain [1] | Enzymatic action, Enzyme of C11 strain [2] | Enzymatic action, Enzyme of N75 strain [3] | Enzymatic action, Enzyme of A19 strain [4]
1 | OC[C@H]1O[C@@](CO)(O[C@H]2O[C@H](CO)[C@@H](O[C@H]3O[C@H](CO)[C@@H](O)[C@H](O)[C@H]3O)[C@H](O)[C@H]2O)[C@@H](O)[C@@H]1O [Erlose, erlose] | + | + | + | +
2 | OC[C@H]1O[C@H](O[C@H]2[C@H](O)[C@@H](O)[C@@H](OC[C@H]3OC(O)[C@H](O)[C@@H](O)[C@@H]3O)O[C@@H]2CO)[C@H](O)[C@@H](O)[C@@H]1O (stereo partly shown) [Isopanose, isopanose] | ++ | ++ | ++ | ++
3 | OC[C@H]1O[C@H](O[C@H]2C(O)O[C@H](CO)[C@@H](O)[C@@H]2O)[C@H](O)[C@@H](O)[C@@H]1O (stereo partly shown) [Kojibiose, kojibiose] | + | + | + | +
4 | OC[C@H]1O[C@H](O[C@H]2[C@H](O)[C@@H](O)[C@H](O)O[C@@H]2CO)[C@H](O)[C@@H](O)[C@@H]1O [Maltose, maltose] | + | + | + | +
5 | OC[C@H]1O[C@H](O[C@H]2O[C@H](CO)[C@@H](O[C@H]3O[C@H](CO)[C@@H](O)[C@H](O)[C@H]3O)[C@H](O)[C@H]2O)[C@H](O)[C@@H](O)[C@@H]1O [Maltosyl glucoside, maltosyl glucoside] | ++ | ++ | ++ | ++
6 | OC[C@H]1O[C@H](O[C@H]2[C@H](O)[C@@H](O)[C@@H](O[C@H]3[C@H](O)[C@@H](O)[C@@H](O[C@H]4[C@H](O)[C@@H](O)C(O)O[C@@H]4CO)O[C@@H]3CO)O[C@@H]2CO)[C@H](O)[C@@H](O)[C@@H]1O (stereo partly shown) [Maltotetraose, maltotetraose] | +++ | +++ | +++ | +++
7 | OC[C@@H](O)[C@@H](O[C@H]1O[C@H](CO)[C@@H](O[C@H]2O[C@H](CO)[C@@H](O)[C@H](O)[C@H]2O)[C@H](O)[C@H]1O)[C@H](O)[C@@H](O)CO [Maltotriitol, maltotriitol] | + | + | + | +
8 | OC[C@H]1O[C@@H](O[C@H]2O[C@H](CO)[C@@H](O)[C@H](O)[C@H]2O)[C@H](O)[C@@H](O)[C@@H]1O [Neotrehalose, neotrehalose] | + | + | + | +
9 | OC[C@H]1O[C@H](O[C@H]2[C@H](O)[C@@H](CO)OC(O)[C@@H]2O)[C@H](O)[C@@H](O)[C@@H]1O (stereo partly shown) [Nigerose, nigerose] | + | + | + | +
10 | OC[C@H]1O[C@H](OC[C@H]2O[C@H](O[C@H]3[C@H](O)[C@@H](O)C(O)O[C@@H]3CO)[C@H](O)[C@@H](O)[C@@H]2O)[C@H](O)[C@@H](O)[C@@H]1O (stereo partly shown) [Panose, panose] | − | − | − | −
11 | OC[C@H]1O[C@H](O[C@H]2O[C@H](CO)[C@@H](O)[C@H](O)[C@H]2O[C@H]2O[C@H](CO)[C@@H](O)[C@H](O)[C@H]2O)[C@H](O)[C@@H](O)[C@@H]1O [Selaginose, selaginose] | − | − | − | −
12 | isomaltosyl glucoside | − | − | − | −
13 | maltoheptaose | +++ | +++ | +++ | +++
14 | maltohexaose | +++ | +++ | +++ | +++
15 | maltopentaose | +++ | +++ | +++ | +++
16 | maltotriose | ++ | ++ | ++ | ++
